Laboratory results taken from article PMC10501326, “A Phase I Study of the Pan-Notch Inhibitor CB-103 for Patients with Advanced Adenoid Cystic Carcinoma and Other Tumors” (Cancer Research Communications, 2023).

Experiments:
[1] = Phase I/II safety and tolerability: DLTs and treatment-related adverse events (CTCAE v4.03); type: in vivo; conditions: added to CB-103; one patient
From the text: The study was an open-label, nonrandomized, phase I/II dose-escalation study with planned expansion cohorts. […] Part B was a potential expansion phase at the MTD/RP2D to determine preliminary evidence of antitumor activity and to confirm safety among patients stratified by preselected cancer indications.
Part A was based on a two-parameter Bayesian logistic regression model (BLRM) to investigate safety and tolerability of sequentially enrolled dose cohorts of 3–6 patients. The first 2 participants of each cohort were enrolled in a staggered approach with at least 1 day apart between first dosing.
(§1) 12-lead electrocardiograms and Holter safety monitoring with periodic cardiac imaging was employed. Efficacy assessments used RECIST v1.1 applied to CT/MRI scans performed at screening and every 8 weeks; or evaluated complete remission with complete hematologic recovery by National Comprehensive Cancer Network guideline criteria for T-ALL/T-LBL. Adherence to study drug administration was evaluated using both patient diaries and capsule counts.
Secondary endpoints included assessment of clinical benefit rate [CBR; defined as achieving complete and/or partial response and/or stable disease (SD) at prespecified benchmarks], duration of response, progression-free survival (PFS) and overall survival (OS), and plasma pharmacokinetics.
The SS was the primary population for all safety and efficacy analyses, except for determination of dose-DLT relationship.
Under this model, and accounting for dropouts and some additional patients enrolled to each cohort, approximately 55 patients were anticipated to enroll in dose escalation and approximately 45 patients in the confirmatory phase. […] All statistical analyses were analyzed using SAS v9.4 software.

[2] = system: advanced solid tumors, adenoid cystic carcinoma (ACC); assay: Antitumor efficacy and survival (RECIST v1.1 response, CBR, PFS, OS); type: in vivo, human
From the text: The study enrolled adults with histologically confirmed, locally advanced and/or metastatic solid tumors who had progressed on at least one line of prior systemic therapy (except for ACC) and relapsed/refractory T-ALL/LBL for whom no standard therapy was available. In dose escalation, participants with solid tumors with known or frequent Notch pathway–activating mutations were eligible (breast cancer, gastrointestinal tumors, hepatocellular carcinoma, osteosarcoma, malignant glomus tumor, and ACC), while the confirmatory cohort planned to enroll participants with selected tumor types (including T-ALL/LBL) and confirmed Notch pathway activation. Key eligibility criteria included patients ≥18 years of age with evaluable disease, Eastern Cooperative Oncology Group (ECOG) performance status 0–1, able to swallow capsules, and adequate organ function. Participants were excluded if they had clinically significant cardiac disease or thromboembolic events within the preceding 6 months, and drugs prolonging the QTc were avoided. A complete list of eligibility criteria is outlined in the Supplementary Materials and Methods.
as §1, with “Safety was assessed via monitoring of DLTs during the first treatment cycle, and of AEs, physical exam, and clinical lab results (hematology, coagulation, blood chemistry, urinalysis, and cardiac markers) throughout the study (Supplementary Table S1). 12-lead” for “12-lead”
The primary endpoint for dose escalation was the number of patients experiencing DLT during the first 28-day cycle of CB-103 and for the confirmatory phase, the incidence rate, severity, and relationship of AEs to CB-103. Secondary endpoints included assessment of clinical benefit rate [CBR; defined as achieving complete and/or partial response and/or stable disease (SD) at prespecified benchmarks], duration of response, progression-free survival (PFS) and overall survival (OS), and plasma pharmacokinetics.
The objective of the BLRM design ([10]) was to determine the MTD defined as the highest dose with less than 25% risk of the true DLT rate being above 33%. The MTD was considered reached if one of the following criteria was fulfilled: (i) if the posterior probability of the true DLT rate in the target interval (16%–33%) of the MTD was >50%, and (ii) at least 6 patients were treated at the MTD. Under this model, and accounting for dropouts and some additional patients enrolled to each cohort, approximately 55 patients were anticipated to enroll in dose escalation and approximately 45 patients in the confirmatory phase. Data were reported using 95% confidence intervals (CI) and survival endpoints (PFS, OS) are reported from the time of first treatment to the first of progression or death summarized by Kaplan–Meier estimates. All statistical analyses were analyzed using SAS v9.4 software.

myeloma cell lines = system: myeloma cell lines; set-up: method as in PMID 21159606; conditions: cited from earlier work
[3] = advanced ACC population; cited from earlier work
[4] = system: NOTCH-mutated advanced ACC; conditions: 77 patients, cited from earlier work

Compound: CC1(C)CCC(CN2CCN(c3ccc(C(=O)NS(=O)(=O)c4ccc(NCC5CCOCC5)c([N+](=O)[O-])c4)c(Oc4cnc5[nH]ccc5c4)c3)CC2)=C(c2ccc(Cl)cc2)C1 [Venetoclax, reference compound]
- Tolerance in combination [1]: good tolerance
- Effect of off-label addition to CB-103 after first progression ([2]; 1 patient with NOTCH1-activating metastatic ACC and tumor BCL2 overexpression): additional tumor growth stabilization
- Further disease stabilization, additional time ([2]; off-label, added to CB-103 upon signs of disease progression, one patient, NOTCH1-activated metastatic ACC, BCL2 overexpression): 3.5 months

Compound: CN(C)CC[C@H](CSc1ccccc1)Nc1ccc(S(=O)(=O)NC(=O)c2ccc(N3CCN(Cc4ccccc4-c4ccc(Cl)cc4)CC3)cc2)cc1[N+](=O)[O-] [ABT-737]
- Effect of combining with a GSI (myeloma cell lines): synergism

Compound: CNC(=O)c1ccccc1Sc1ccc2c(/C=C/c3ccccn3)n[nH]c2c1 [axitinib]
- Discontinuation rates for toxicity [3]: ≥ 20%

Compound: CN1C(=O)[C@@H](NC(=O)[C@H](CCC(F)(F)F)[C@H](CCC(F)(F)F)C(N)=O)N=C(c2ccccc2)c2ccccc21 [AL101]
- Disease control rate ([4]; benchmark not reported): 69%
- Partial response rate [4]: 12%
- Patients exhibiting SD [4]: 57%
